Experimental data reported in publication PMC9374667 (Communications Biology, 2022).
Where “and” joins values, the source holds several entries; their conditions need not be identical. Identical values can stand only once.

Experiments:
Type in all cases: in vivo
db/db mice [1] = test: Body weight of db/db mice during 35-day treatment
Protocol: (§1) The lean wild type control and the db/db control mice were given equal vehicle volume (0.5% CMC-Na solution). All mice were monitored for food intake, body weight, and fasting blood glucose during the 35-day trial. Glucose tolerance test (GTT) and insulin resistance test (ITT) were performed at 4 and 5 weeks of treatment, respectively. Metabolic analysis was performed at 5 weeks of treatment. At the end of the study, blood samples were taken through the retroorbital venous sinus of mice, fat depots (brown fat, inguinal subcutaneous fat, epididymal fat, perirenal fat and mesenteric fat depot) were dissected, weighed, and immediately frozen in liquid nitrogen and stored at −80 °C until required. Weight of fat depots are expressed in percentage (fat depots weight /bodyweight * 100%).

db/db mice [2] = test: Fat depots weight (BAT, iWAT, eWAT; percentage of body weight)
Protocol: as §1

db/db mice [3] = test: Weekly fasting glucose levels of db/db mice; conditions: 150mg/kg
Protocol: as §1

db/db mice [4] = test: Insulin tolerance test (ITT), AUC and initial slope; conditions: db/db mice, IBU 150mg/kg
Protocol: Mice were fasted for 4 h for insulin resistance test and intraperitoneally injected with 1 unit/kg of insulin. Blood glucose levels were measured from the tail vein blood at 0, 15, 30, 45, 60, 90, and 120 min after injection. Plasma insulin levels were measured using an ultrasensitive mouse insulin ELISA kit (Nanjing Jiancheng Bioengineering Institute, Nanjing, China).

## CC(C)Cc1ccc(C(C)C(=O)O)cc1 (stereo not shown) [Ibu, Ibuprofen, reference compound]
db/db mice [1]; 150mg/kg, day 1, individual animals, in g (unit assumed)
  Body weight: 38.2 and 39.7
db/db mice [1]; 150mg/kg, day 4, individual animals, in g (unit assumed)
  Body weight: 40.6 and 39.7
db/db mice [1]; 150mg/kg, day 19, individual animals, in g (unit assumed)
  Body weight: 48.2
db/db mice [1]; 150mg/kg, day 22, individual animals, in g (unit assumed)
  Body weight: 50.5
db/db mice [1]; 150mg/kg, day 25, individual animals, in g (unit assumed)
  Body weight: 51.6 and 48.5
db/db mice [1]; 150mg/kg, day 28, individual animals, in g (unit assumed)
  Body weight: 49.3 and 49.1 and 52.6 and 48.8 and 51.3
db/db mice [1]; 150mg/kg, day 31, individual animals, in g (unit assumed)
  Body weight: 48.5 and 50.3 and 53 and 48.8 and 51.4
db/db mice [1]; 150mg/kg, day 34, individual animals, in g (unit assumed)
  Body weight: 51.2 and 54.1 and 50.2 and 52.2
db/db mice [1]; 150mg/kg, individual animals, in g (unit assumed)
  Body weight gain (day 34 minus day 1): 12.5 and 9.1 and 9.9 and 9.2 and 12.8 and 12
db/db mice [1]; db/db mice, 5 weeks, BJ 75 and 150 mg/kg, BBR 150 mg/kg, Ibu 150 mg/kg
  Body weight compared with vehicle: did not observe any significant difference in body weight
db/db mice [2]; 150mg/kg, individual animals
  Fat Depots Weight, BAT: 1.27 g and 2.12 g and 1.64 g and 1.62 g and 1.65 g and 1.78 g
  Fat Depots Weight, eWAT: 3.22 g and 3.09 g and 3.41 g and 3.43 g and 3.15 g and 3.78 g
  Fat Depots Weight, iWAT: 3.71 g and 3.4 g and 3.36 g and 4.03 g and 3.78 g and 4.01 g
  Fat depots weight / body weight: 19.7809% and 19.1502% and 20.6641% and 20.9797%
db/db mice [2]; db/db mice, BJ 75 and 150 mg/kg, BBR 150 mg/kg, Ibu 150 mg/kg
  Fat depots weight compared with vehicle: not significantly different
db/db mice [3]; week 0, individual animals
  Blood Glucose (Figure S9n): 16.0 mmol/L and 15.1 mmol/L and 15.0 mmol/L and 16.2 mmol/L and 11.3 mmol/L and 15.2 mmol/L
db/db mice [3]; week 1, individual animals
  Blood Glucose (Figure S9n): 16.3 mmol/L and 19.3 mmol/L and 21.7 mmol/L and 13.6 mmol/L and 13.3 mmol/L and 14.9 mmol/L
db/db mice [3]; week 2, individual animals
  Blood Glucose (Figure S9n): 20.7 mmol/L and 21.3 mmol/L and 19.0 mmol/L
db/db mice [3]; week 3, individual animals
  Blood Glucose (Figure S9n): 23.3 mmol/L and 18.9 mmol/L and 18.7 mmol/L and 22.0 mmol/L
db/db mice [3]; week 4, individual animals
  Blood Glucose (Figure S9n): 22.4 mmol/L and 22.3 mmol/L and 22.8 mmol/L
db/db mice [3]; week 5, individual animals
  Blood Glucose (Figure S9n): 23.6 mmol/L and 23.0 mmol/L
db/db mice [4]; times 0, individual animals (Figure S9p/S9r)
  Blood Glucose: 22.4 mmol/L and 22.3 mmol/L and 22.8 mmol/L
db/db mice [4]; times 15, individual animals (Figure S9p/S9r)
  Blood Glucose: 24.0 mmol/L
db/db mice [4]; times 30, individual animals (Figure S9p/S9r)
  Blood Glucose: 19.6 mmol/L and 21.3 mmol/L and 20.3 mmol/L and 18.8 mmol/L
db/db mice [4]; times 45, individual animals (Figure S9p/S9r)
  Blood Glucose: 13.8 mmol/L and 18.5 mmol/L and 19.5 mmol/L and 17.5 mmol/L and 15.3 mmol/L and 15.6 mmol/L
db/db mice [4]; times 60, individual animals (Figure S9p/S9r)
  Blood Glucose: 15.0 mmol/L and 13.2 mmol/L and 20.4 mmol/L and 15.7 mmol/L
db/db mice [4]; times 90, individual animals (Figure S9p/S9r)
  Blood Glucose: 15.6 mmol/L and 21.3 mmol/L and 21.6 mmol/L and 14.9 mmol/L and 15.0 mmol/L
db/db mice [4]; times 120, individual animals (Figure S9p/S9r)
  Blood Glucose: 18.2 mmol/L and 22.9 mmol/L and 18.8 mmol/L and 16.9 mmol/L and 15.3 mmol/L
